# Experimental data: patent publication US11957687B2 (REGENERON PHARMACEUTICALS, INC., priority 2019, dated 2024)
# Biological target: HSD17B13 (Homo sapiens (Human), UniProt Q7Z5P4)
# Test: HSD17B13 enzymatic inhibition assay (150 nM or 50 nM HSD17B13)
# Assay type: biochemical
# Details: 50 nM HSD17B13; read-out: Inhibition of 50 nM of HSD17B13 IC50
# Sequence of HSD17B13 (Q7Z5P4 other isoform, or with tags, fused parts or gaps): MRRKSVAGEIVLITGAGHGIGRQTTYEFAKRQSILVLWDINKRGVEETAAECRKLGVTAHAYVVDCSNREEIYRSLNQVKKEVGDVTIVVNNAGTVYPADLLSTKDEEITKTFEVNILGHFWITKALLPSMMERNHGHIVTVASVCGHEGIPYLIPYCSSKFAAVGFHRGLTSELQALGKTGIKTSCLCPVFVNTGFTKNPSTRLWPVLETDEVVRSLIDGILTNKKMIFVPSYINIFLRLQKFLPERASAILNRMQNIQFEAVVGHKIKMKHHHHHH
row,SMILES,IC50 [nM]
1,"O=C(NC(c1ccccc1)c1ccc(-c2ncccn2)cc1)c1ccc(C(F)(F)F)[nH]c1=O (stereo not drawn) [Compound 97, 2-oxo-N-(phenyl(4-(pyrimidin-2-yl)phenyl)methyl)-6-(trifluoromethyl)-1,2-dihydropyridine-3-carboxamide]",2300
2,"NCc1ccc(C(NC(=O)c2ccc(C(F)(F)F)[nH]c2=O)c2ccccc2)cc1 (stereo not drawn) [Compound 98, N-((4-(aminomethyl)phenyl)(phenyl)methyl)-2-oxo-6-(trifluoromethyl)-1,2-dihydropyridine-3-carboxamide]",> 10000
3,"O=C(NC(c1ccccc1)c1ccc(C2COC2)cc1)c1ccc(C(F)(F)F)[nH]c1=O (stereo not drawn) [Compound 99, N-((4-(oxetan-3-yl)phenyl)(phenyl)methyl)-2-oxo-6-(trifluoromethyl)-1,2-dihydropyridine-3-carboxamide]",2720
4,"O=C(NC(c1ccccc1)c1ccc(-c2ccccn2)cc1)c1ccc(C(F)(F)F)[nH]c1=O (stereo not drawn) [Compound 100, 2-oxo-N-(phenyl(4-(pyridin-2-yl)phenyl)methyl)-6-(trifluoromethyl)-1,2-dihydropyridine-3-carboxamide]",740
5,"O=C(NC(c1ccccc1)c1ccc(-c2cnccn2)cc1)c1ccc(C(F)(F)F)[nH]c1=O (stereo not drawn) [Compound 101, 2-oxo-N-(phenyl(4-(pyrazin-2-yl)phenyl)methyl)-6-(trifluoromethyl)-1,2-dihydropyridine-3-carboxamide]",1230
6,"CNCc1ccc(C(NC(=O)c2ccc(C(F)(F)F)[nH]c2=O)c2ccccc2)cc1 (stereo not drawn) [Compound 102, N-((4-((methylamino)methyl)phenyl) (phenyl)methyl)-2-oxo-6-(trifluoromethyl)-1,2-dihydropyridine-3-carboxamide]",> 10000
7,"CN(C)Cc1ccc(C(NC(=O)c2ccc(C(F)(F)F)[nH]c2=O)c2ccccc2)cc1 (stereo not drawn) [Compound 103, N-((4-((dimethylamino)methyl)phenyl)(phenyl)methyl)-2-oxo-6-(trifluoromethyl)-1,2-dihydropyridine-3-carboxamide]",> 10000
8,"O=C(NC(c1ccccc1)c1ccc(C2CCNCC2)cc1)c1ccc(C(F)(F)F)[nH]c1=O (stereo not drawn) [Compound 104, 2-oxo-N-(phenyl(4-(piperidin-4-yl)phenyl)methyl)-6-(trifluoromethyl)-1,2-dihydropyridine-3-carboxamide]",8650
9,"O=C(NC(c1ccccc1)c1ccc(C2=CCNCC2)cc1)c1ccc(C(F)(F)F)[nH]c1=O (stereo not drawn) [Compound 105, 2-oxo-N-(phenyl(4-(1,2,3,6-tetrahydropyridin-4-yl)phenyl)methyl)-6-(trifluoromethyl)-1,2-dihydropyridine-3-carboxamide]",4280
10,"CN1CCC(c2ccc(C(NC(=O)c3ccc(C(F)(F)F)[nH]c3=O)c3ccccc3)cc2)CC1 (stereo not drawn) [Compound 106, N-((4-(1-methylpiperidin-4-yl)phenyl)(phenyl)methyl)-2-oxo-6-(trifluoromethyl)-1,2-dihydropyridine-3-carboxamide]",> 10000
11,"O=C(NC(c1ccccc1)c1ccc2c(c1)CCCN2)c1ccc(C(F)(F)F)[nH]c1=O (stereo not drawn) [Compound 107, 2-oxo-N-(phenyl(1,2,3,4-tetrahydroquinolin-6-yl)methyl)-6-(trifluoromethyl)-1,2-dihydropyridine-3-carboxamide]",960
12,"O=C(NC(c1ccccc1)c1ccc2c(c1)CNCC2)c1ccc(C(F)(F)F)[nH]c1=O (stereo not drawn) [Compound 108, 2-oxo-N-(phenyl(1,2,3,4-tetrahydroisoquinolin-7-yl)methyl)-6-(trifluoromethyl)-1,2-dihydropyridine-3-carboxamide]",> 10000
13,"O=C(NC(c1ccccc1)c1ccc(CO)cc1)c1ccc(C(F)(F)F)[nH]c1=O (stereo not drawn) [Compound 109, N-((4-(hydroxymethyl)phenyl) (phenyl)methyl)-2-oxo-6-(trifluoromethyl)-1,2-dihydropyridine-3-carboxamide]",820
14,"O=C(NC(c1ccccc1)c1ccc2c(c1)NCCC2)c1ccc(C(F)(F)F)[nH]c1=O (stereo not drawn) [Compound 110, 2-oxo-N-(phenyl(1,2,3,4-tetrahydroquinolin-7-yl)methyl)-6-(trifluoromethyl)-1,2-dihydropyridine-3-carboxamide]",840
15,"O=C(NC(c1ccccc1)c1ccc2c(c1)CCNC2)c1ccc(C(F)(F)F)[nH]c1=O (stereo not drawn) [Compound 112, 2-oxo-N-(phenyl(1,2,3,4-tetrahydroisoquinolin-6-yl)methyl)-6-(trifluoromethyl)-1,2-dihydropyridine-3-carboxamide]",> 10000
16,"O=C(NC(c1ccccc1)c1ccc2c(c1)CNC2)c1ccc(C(F)(F)F)[nH]c1=O (stereo not drawn) [Compound 113, N-(isoindolin-5-yl(phenyl)methyl)-2-oxo-6-(trifluoromethyl)-1,2-dihydropyridine-3-carboxamide]",> 10000
17,"O=C(NC(c1ccccc1)c1ccc(C2CCN(CC(F)(F)F)CC2)cc1)c1ccc(C(F)(F)F)[nH]c1=O (stereo not drawn) [Compound 114, 2-oxo-N-(phenyl(4-(1-(2,2,2-trifluoroethyl)piperidin-4-yl)phenyl)methyl)-6-(trifluoromethyl)-1,2-dihydropyridine-3-carboxamide]",280
18,"Cc1ccc(C(NC(=O)c2cc(C(F)(F)F)c[nH]c2=O)c2ccc(C)cc2)cc1 [Compound 116, N-(di-p-tolylmethyl)-2-oxo-5-(trifluoromethyl)-1,2-dihydropyridine-3-carboxamide]",> 10000
19,"Cc1ccc(C(NC(=O)c2cc(C)c(C(F)F)[nH]c2=O)c2ccc(C)cc2)cc1 [Compound 117, N-(di-p-tolylmethyl)-6-(difluoromethyl)-5-methyl-2-oxo-1,2-dihydropyridine-3-carboxamide]",> 10000
20,"C=Cc1cc(C(=O)NC(c2ccc(C)cc2)c2ccc(C)cc2)c(=O)[nH]c1C(F)(F)F [Compound 118, N-(di-p-tolylmethyl)-2-oxo-6-(trifluoromethyl)-5-vinyl-1,2-dihydropyridine-3-carboxamide]",300

# Continued, values first:
row,IC50 [nM],SMILES
1,250,"CCc1cc(C(=O)NC(c2ccc(C)cc2)c2ccc(C)cc2)c(=O)[nH]c1C(F)(F)F [Compound 119, N-(di-p-tolylmethyl)-5-ethyl-2-oxo-6-(trifluoromethyl)-1,2-dihydropyridine-3-carboxamide]"
2,870,"Cc1ccc(C(NC(=O)c2cc(CCO)c(C(F)(F)F)[nH]c2=O)c2ccc(C)cc2)cc1 [Compound 120, N-(di-p-tolylmethyl)-5-(2-hydroxyethyl)-2-oxo-6-(trifluoromethyl)-1,2-dihydropyridine-3-carboxamide]"
3,220,"C=CCc1cc(C(=O)NC(c2ccc(C)cc2)c2ccc(C)cc2)c(=O)[nH]c1C(F)(F)F [Compound 121, 5-allyl-N-(di-p-tolylmethyl)-2-oxo-6-(trifluoromethyl)-1,2-dihydropyridine-3-carboxamide]"
4,> 10000,"Cc1ccc(C(NC(=O)c2c(C(F)(F)F)cc[nH]c2=O)c2ccc(C)cc2)cc1 [Compound 122, N-(di-p-tolylmethyl)-2-oxo-4-(trifluoromethyl)-1,2-dihydropyridine-3-carboxamide]"
5,5790,"Cc1cc(C(F)(F)F)[nH]c(=O)c1C(=O)NC(c1ccccc1)c1ccccc1 [Compound 123, N-benzhydryl-4-methyl-2-oxo-6-(trifluoromethyl)-1,2-dihydropyridine-3-carboxamide]"
6,1400,"Cc1cc(C(F)(F)F)[nH]c(=O)c1C(=O)NC(c1ccccc1)c1ccc(Cl)cc1 (stereo not drawn) [Compound 124, N-((4-chlorophenyl)(phenyl)methyl)-4-methyl-2-oxo-6-(trifluoromethyl)-1,2-dihydropyridine-3-carboxamide]"
7,960,"Cc1cc(C(F)(F)F)[nH]c(=O)c1C(=O)NC(c1ccccc1)c1ccc(CC(F)(F)F)cc1 (stereo not drawn) [Compound 125, 4-methyl-2-oxo-N-(phenyl(4-(2,2,2-trifluoroethyl)phenyl)methyl)-6-(trifluoromethyl)-1,2-dihydropyridine-3-carboxamide]"
8,1750,"Cc1ccc(C(NC(=O)c2c(C)cc(C(F)(F)F)[nH]c2=O)c2ccccc2)cc1 (stereo not drawn) [Compound 126, 4-methyl-2-oxo-N-(phenyl(p-tolyl)methyl)-6-(trifluoromethyl)-1,2-dihydropyridine-3-carboxamide]"
9,3750,"O=C(NC1CCSc2ccccc21)c1ccc(C(F)(F)F)[nH]c1=O (stereo not drawn) [Compound 127, 2-oxo-N-(thiochroman-4-yl)-6-(trifluoromethyl)-1,2-dihydropyridine-3-carboxamide]"
10,5690,"O=C(NC1CCOc2ccccc21)c1ccc(C(F)(F)F)[nH]c1=O (stereo not drawn) [Compound 128, N-(chroman-4-yl)-2-oxo-6-(trifluoromethyl)-1,2-dihydropyridine-3-carboxamide]"
11,4330,"CC1CC(NC(=O)c2ccc(C(F)(F)F)[nH]c2=O)c2ccccc2O1 (stereo not drawn) [Compound 129, N-(2-methylchroman-4-yl)-2-oxo-6-(trifluoromethyl)-1,2-dihydropyridine-3-carboxamide]"
12,> 10000,"O=C(NC1CCNc2ccccc21)c1ccc(C(F)(F)F)[nH]c1=O (stereo not drawn) [Compound 130, 2-oxo-N-(1,2,3,4-tetrahydroquinolin-4-yl)-6-(trifluoromethyl)-1,2-dihydropyridine-3-carboxamide]"
13,1820,"O=C(NC1CCc2cc(Cl)ccc21)c1ccc(C(F)(F)F)[nH]c1=O (stereo not drawn) [Compound 131, N-(5-chloro-2,3-dihydro-1H-inden-1-yl)-2-oxo-6-(trifluoromethyl)-1,2-dihydropyridine-3-carboxamide]"
14,1450,"O=C(NC1CCCc2ccccc21)c1ccc(C(F)(F)F)[nH]c1=O (stereo not drawn) [Compound 132, 2-oxo-N-(1,2,3,4-tetrahydronaphthalen-1-yl)-6-(trifluoromethyl)-1,2-dihydropyridine-3-carboxamide]"
15,1450,"Cc1ccc2c(c1)CCC2NC(=O)c1ccc(C(F)(F)F)[nH]c1=O (stereo not drawn) [Compound 133, N-(5-methyl-2,3-dihydro-1H-inden-1-yl)-2-oxo-6-(trifluoromethyl)-1,2-dihydropyridine-3-carboxamide]"
16,1910,"O=C(NC1CCc2cc(O)ccc21)c1ccc(C(F)(F)F)[nH]c1=O (stereo not drawn) [Compound 135, N-(5-hydroxy-2,3-dihydro-1H-inden-1-yl)-2-oxo-6-(trifluoromethyl)-1,2-dihydropyridine-3-carboxamide]"
